We go through two compounds from patent US20090197957A1, “Methods and compositions for the treatment of pain” (Nuon Therapeutics, Inc., priority 2005, published 2009).

Test [1] concerns established CIA. Briefly: Treatment of established collagen-induced arthritis (clinical score, paw swelling, histology, relapse). It is filed as in vivo, DBA/1 mice. The protocol: FIG. 2 is a graphical representation of the treatment of established CIA with 3,4-DAA. DBA/1 mice were immunised with type II collagen in CFA and monitored for development of arthritis. On day 1 of arthritis, mice were injected intraperitoneally with 3,4-DAA on a daily basis. Paw thickness was measured with callipers. The clinical scoring system was as follows: 0=normal, 1=slight swelling and/or erythema, and 2=pronounced oedematous swelling. Each limb was graded, giving a maximum score of 8 per mouse. Histological assessment of arthritis was carried out on haematoxylin and eosin stained sections using a scoring system as follows: 0, normal; 1, minimal synovitis without cartilage/bone erosion; 2, synovitis with some marginal erosion but joint architecture maintained; 3, severe synovitis and erosion with loss of normal joint architecture. There were 14 mice/group (data pooled from two separate experiments).
FIG. 5 is a graphical representation of the relapse of arthritis 4 days after cessation of therapy. Mice with established CIA (n=6) were treated with 3,4-DAA (400 mg/kg/day) from days 1 to 5 of arthritis and clinical severity of arthritis was monitored up to day 12. Arthritis is seen to relapse at around day 9.
Type II collagen was purified from bovine cartilage, as described [Williams 2004, Methods Mol. Med. 98:207-216] and solubilized by stirring overnight at 4° C. in acetic acid (0.1M) or Tris buffer (0.05 M Tris, containing 0.2 M NaCl, pH 7.4). 3,4-DAA was synthesised by Angiogen Pharmaceuticals Pty. Ltd. For in vivo studies 3,4-DAA was dissolved at a maximum concentration of 10 mg/ml in 1% sodium bicarbonate by heating for 1 h at 70° C. Upon cooling, an emulsion was formed. For in vitro studies 3,4-DAA was dissolved in dimethyl sulphoxide (DMSO). 3-Hydroxy-anthranilic acid (3-HAA) was purchased from Sigma (Poole, UK) and dissolved in PBS.
Male DBA/1 mice (8-12 weeks old) were immunized intradermally at the base of the tail with bovine type II collagen (200 μg) emulsified in complete Freund's adjuvant (CFA; Difco, West Molesley, UK). Arthritis was monitored clinically using the following scoring system: 0=normal, 1=slight swelling and/or erythema, and 2=pronounced oedematous swelling. Each limb was graded, giving a maximum score of 8 per mouse. In addition, paw-swelling was measured using callipers.
Histopathological assessment of arthritis was carried out in a ‘blinded’ fashion on decalcified haematoxylin and eosin stained sections using a scoring system as follows: 0, normal; 1, minimal synovitis without cartilage/bone erosion; 2, synovitis with some marginal erosion but joint architecture maintained; 3, severe synovitis and erosion with loss of normal joint architecture. This research was approved by the local ethical review process committee and by the Home Office of Great Britain.
The ability of 3,4-DAA to treat established CIA was tested. Mice were immunised with type II collagen in CFA. On day 1 of clinical arthritis (the day that arthritis was first observed) mice were randomly assigned to different treatment groups and given 3,4-DAA (100 mg/kg/day, 200 mg/kg/day or 400 mg/kg/day) or vehicle alone over a 10 day period. […] Significant differences between 3,4-DAA treated and control mice were observed from day 3 until the end of the treatment period (day 10). On day 10 the mice were killed and the first paw to show clinical evidence of arthritis was processed for histology. Joints were examined ‘blindly’ for severity of inflammation and joint erosion.
Therefore, it is clearly of interest to establish what happens in vivo when treatment with 3,4-DAA is stopped. Is there a disease flare and if so, does it occur immediately after cessation of treatment? […] Treatment was then stopped and mice were monitored for a further 7 days.

Test [2] deals with purified B cells. Briefly: B cell proliferation in vitro (anti-CD40, 3H-thymidine incorporation). It is filed as cell-based. The conditions noted are these: anti-CD40 stimulation, 72 h; for IC50: B-cell, read-out: IC50 for inhibition of B cell proliferation; for B cell proliferation: varying doses. The protocol: FIG. 7 is a graphical representation depicting that 3,4-DAA and 3-HAA inhibit B and T cell proliferation in vitro. Purified B and T cells were stimulated for 72 h with anti-CD40 (a), or anti-CD3/anti-CD28 (b) respectively, in the presence of varying doses of 3,4-DAA, or 3-HAA.
A single cell suspension was prepared by pushing splenic tissue through a cell strainer, and erythrocytes were lysed using an ammonium chloride solution (Sigma, St Louis, Mo.). B cells were positively enriched by using anti-IgM microbeads (BD Pharmingen), and T cells were positively enriched using anti-CD4 MACS microbeads, according to the manufacturer's guidelines (Miltenyi Biotec, Bergisch Gladbach, Germany). Purity was assessed by flow cytometric analysis (B cell>90% CD19+, T cell>90% CD4+). Cells were cultured at 5×10^5 cells/ml in 200 μl complete RPMI, as above, in a flat bottom 96-well plate and cultured for 72 h. B cells were stimulated with anti-CD40 monoclonal antibody (10 μg/ml; BD), and T cells were stimulated with 5 μg/ml plate-bound anti-CD3 (ebiosciences) plus 5 μg/ml soluble anti-CD28 (ebiosciences). 3,4-DAA, 3-HAA, or vehicle (DMSO) was added at graded concentrations immediately prior to stimulation. 48 hours after stimulation, 100 μl culture medium was collected, and cells were pulsed with 1 μCi ^3H thymidine per well for 18 h. Cells were then harvested and plates assessed for thymidine incorporation. Each assay was performed on a minimum of 3 occasions. IFN-γ, IL-10 and IL-5 levels were assessed in the culture medium by ELISA, as above.
Activation of purified B (FIG. 7a) and T cells (FIG. 7b) was induced by anti-CD40, and anti-CD3/CD28 respectively, and proliferation was assessed by ^3H-thymidine incorporation. […] Inhibition of proliferation was also observed when B cells were stimulated with LPS or anti-IgM. […] It was concluded that the effects of 3,4-DAA and 3-HAA on T and B cells in vitro were remarkably similar, though not identical. It is of also note that 3-HAA had no action on inflammation or allodynia, when administered therapeutically in CIA at doses of up to 400 mg/kg/day.
(Incorporation of labelled thymidine or its analogues reports DNA synthesis.)

Where [3] appears, read: established CIA, 100, 200 or 400 mg/kg/day over 10 days.
Setting [4] is: up to 10 days therapy, 3,4-DAA 200 mg/kg/day, dexamethasone 0.5 mg/kg/2 days.

Consider `Nc1c(O)cccc1C(=O)O` [3-Hydroxyanthranilic acid], for which the “action on inflammation in CIA” value in test [1] (administered therapeutically at doses of up to 400 mg/kg/day) is “no action”. In test [2], the IC50 was determined as 65 µM and the B cell proliferation entry is “dose-dependently inhibited”.

In the case of `COc1ccc(/C=C/C(=O)Nc2ccccc2C(=O)O)cc1OC` [Tranilast, 2-[[3-(3,4-dimethoxyphenyl)-1-oxo-2-propenyl]amino]benzoic acid], the “arthritis severity during the treatment period” value in test [1] (400 mg/kg/day from day 1 to day 5 of arthritis) was “dramatic reduction”. Moreover, in test [1] (400 mg/kg/day from days 1 to 5, monitored up to day 12), the “day of arthritis on which exacerbation/relapse was observed after treatment stopped on day 5” value was 9 days. In test [1] (setting [3]), the clinical scores entry is reported as “dose-dependent reduction” and the paw-swelling result is listed as “dose-dependent reduction”. Further, the “histological severity of arthritis” value in test [1] (established CIA, 100, 200 or 400 mg/kg/day, day 10) is “dose-dependent reduction”. Further, in test [1] (setting [4]), the clinical score entry is listed as “significantly reduced” and the paw swelling result is “significantly reduced”. Besides, in test [2], the IC50 amounted to 73 µM and the B cell proliferation entry is reported as “dose-dependently inhibited”.
